In ChEMBL document CHEMBL1201861, “Genomics of Drug Sensitity in Cancer screening data, Wellcome Trust Sanger Institute”:
Several values for one entry are separate records, joined by “and”; a condition that tells them apart may be missing. Identical values can stand only once.

Assays:
Assay in all cases: cells
LNCaP-Clone-FGC = format: functional, cell-based, Homo sapiens
Description: SANGER: Inhibition of human LNCaP-Clone-FGC cell growth in a cell viability assay.

SW982 = format: functional, cell-based; settings: Homo sapiens;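 further: growth inhibition of SW982 cells, read out with a cell viability assay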
Description: SANGER: Inhibition of human SW982 cell growth in a cell viability assay.

D-392MG = format: functional, cell-based, Homo sapiens
CAL-51 = format: functional, cell-based, Homo sapiens;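 further: human CAL-51 cell line, growth inhibition read out via a cell viability assay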
Description: SANGER: Inhibition of human CAL-51 cell growth in a cell viability assay.

Ca-Ski = format: functional, cell-based; settings: Homo sapiens;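 further: cell viability assay measuring inhibition of Ca-Ski cell growth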
Description: SANGER: Inhibition of human Ca-Ski cell growth in a cell viability assay.

SNU-387 = format: functional, cell-based, Homo sapiens
Description: SANGER: Inhibition of human SNU-387 cell growth in a cell viability assay.

NCI-H526 = format: functional, cell-based; settings: Homo sapiens;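 further: growth inhibition of the human NCI-H526 cell line, measured by a cell viability assay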
Description: SANGER: Inhibition of human NCI-H526 cell growth in a cell viability assay.

Detroit 562 = format: functional, cell-based, Homo sapiens;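 further: growth inhibition of human Detroit 562 cells, read out by a cell viability assay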
MKN-1 = format: functional, cell-based, Homo sapiens;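 further: growth inhibition of human MKN1 cells, read out by a cell viability measurement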
Description: SANGER: Inhibition of human MKN1 cell growth in a cell viability assay.

M059J = format: functional, cell-based, Homo sapiens;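 further: growth inhibition of M059J cells, read out with a cell viability assay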
Description: SANGER: Inhibition of human M059J cell growth in a cell viability assay.

K5 = format: functional, cell-based, Homo sapiens
NCI-H2030 = format: functional, cell-based, Homo sapiens;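 further: growth inhibition of human NCI-H2030 cells, read out by a cell viability assay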
Description: SANGER: Inhibition of human NCI-H2030 cell growth in a cell viability assay.

A204 = format: functional, cell-based, Homo sapiens;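 further: growth inhibition of human A204 cells, read out with a cell viability assay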
Description: SANGER: Inhibition of human A204 cell growth in a cell viability assay.

SK-MEL-28 = format: functional, cell-based; settings: Homo sapiens;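 further: growth inhibition of human SK-MEL-28 cells, read out with a cell viability assay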
Description: SANGER: Inhibition of human SK-MEL-28 cell growth in a cell viability assay.

IA-LM = format: functional, cell-based, Homo sapiens;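 further: cell viability assay measuring growth inhibition of human IA-LM cells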
Description: SANGER: Inhibition of human IA-LM cell growth in a cell viability assay.

MFE-280 = format: functional, cell-based, Homo sapiens;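 further: growth inhibition of MFE-280 cells, determined with a cell viability readout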
Description: SANGER: Inhibition of human MFE-280 cell growth in a cell viability assay.

SW13 = format: functional, cell-based, Homo sapiens;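 further: IC50 is inhibition of SW13 cell growth, read out with a cell viability assay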
Description: SANGER: Inhibition of human SW13 cell growth in a cell viability assay.

FTC-133 = format: functional, cell-based, Homo sapiens
GCT = format: functional, cell-based, Homo sapiens;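 further: GCT cell line proliferation inhibition, read out with a cell viability assay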
Description: SANGER: Inhibition of human GCT cell growth in a cell viability assay.

MHH-ES-1 = format: functional, cell-based, Homo sapiens;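 further: cell growth inhibition measured by a cell viability assay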
Description: SANGER: Inhibition of human MHH-ES-1 cell growth in a cell viability assay.

KALS-1 = format: functional, cell-based, Homo sapiens;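 further: growth inhibition of KALS-1 cells, determined with a cell viability assay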
KYSE-450 = format: functional, cell-based; settings: Homo sapiens;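 further: cell growth inhibition measured by a viability assay in human KYSE-450 cells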
Description: SANGER: Inhibition of human KYSE-450 cell growth in a cell viability assay.

TYK-nu = format: functional, cell-based, Homo sapiens;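 further: growth inhibition of human TYK-nu cells, read out by a cell viability assay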
Description: SANGER: Inhibition of human TYK-nu cell growth in a cell viability assay.

A4-Fuk = format: functional, cell-based; settings: Homo sapiens;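 further: growth inhibition of A4-Fuk cells, read out by a cell viability assay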
Description: SANGER: Inhibition of human A4-Fuk cell growth in a cell viability assay.

LXF-289 cell line = format: functional, cell-based, Homo sapiens
Description: SANGER: Inhibition of human LXF-289 cell growth in a cell viability assay.

SCC-25 = format: functional, cell-based, Homo sapiens;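 further: growth inhibition of SCC-25 cells, measured with a cell viability assay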
KMOE-2 = format: functional, cell-based; settings: Homo sapiens;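 further: growth inhibition of human KMOE-2 cells, read out with a cell viability assay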
Description: SANGER: Inhibition of human KMOE-2 cell growth in a cell viability assay.

PANC-08-13 = format: functional, cell-based, Homo sapiens;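 further: cell growth inhibition, measured with a cell viability assay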
Description: SANGER: Inhibition of human PANC-08-13 cell growth in a cell viability assay.

DoTc2-4510 = format: functional, cell-based, Homo sapiens
KYSE-270 = format: functional, cell-based, Homo sapiens;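 further: cell growth inhibition measured with a viability assay in the human KYSE-270 line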
Description: SANGER: Inhibition of human KYSE-270 cell growth in a cell viability assay.

ASPC1 = format: functional, cell-based, Homo sapiens;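 further: growth inhibition of AsPC-1 cells, read out with a cell viability assay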
Description: SANGER: Inhibition of human AsPC-1 cell growth in a cell viability assay.

CAL-12T = format: functional, cell-based, Homo sapiens;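 further: growth inhibition of human CAL-12T cells, read out with a cell viability assay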
Description: SANGER: Inhibition of human CAL-12T cell growth in a cell viability assay.

TE-12 = format: functional, cell-based; settings: Homo sapiens;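 further: growth inhibition of TE-12 cells, read out by a cell viability assay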
Description: SANGER: Inhibition of human TE-12 cell growth in a cell viability assay.

HC-1 = format: functional, cell-based; settings: Homo sapiens;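 further: growth inhibition of HC-1 cells measured by a cell viability assay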
Description: SANGER: Inhibition of human HC-1 cell growth in a cell viability assay.

HTC-C3 = format: functional, cell-based, Homo sapiens;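 further: inhibition of cell growth, read out with a cell viability assay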
Description: SANGER: Inhibition of human HTC-C3 cell growth in a cell viability assay.

ES4 = format: functional, cell-based, Homo sapiens;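 further: growth inhibition of human ES4 cells, read out by a cell viability assay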
Description: SANGER: Inhibition of human ES4 cell growth in a cell viability assay.

HT = format: functional, cell-based; settings: Homo sapiens
Description: SANGER: Inhibition of human HT cell growth in a cell viability assay.

LB2241-RCC = format: functional, cell-based, Homo sapiens;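 further: cell viability assay measuring how strongly the cultured human renal carcinoma line is prevented from growing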
Description: SANGER: Inhibition of human LB2241-RCC cell growth in a cell viability assay.

LU-139 = format: functional, cell-based; settings: Homo sapiens
Description: SANGER: Inhibition of human LU-139 cell growth in a cell viability assay.

SCH = format: functional, cell-based, Homo sapiens;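 further: growth inhibition of human SCH cells, read out in a cell viability assay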
Description: SANGER: Inhibition of human SCH cell growth in a cell viability assay.

DB = format: functional, cell-based; settings: Homo sapiens
Description: SANGER: Inhibition of human DB cell growth in a cell viability assay.

NCI-H2126 = format: functional, cell-based, Homo sapiens;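 further: growth inhibition of the cancer cell line, determined with a cell viability readout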
Description: SANGER: Inhibition of human NCI-H2126 cell growth in a cell viability assay.

TGBC1TKB = format: functional, cell-based, Homo sapiens;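 further: growth inhibition of TGBC1TKB cells, read out by a cell viability assay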
Description: SANGER: Inhibition of human TGBC1TKB cell growth in a cell viability assay.

NCI-H747 = format: functional, cell-based; settings: Homo sapiens;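 further: growth inhibition of human NCI-H747 cells, read out by a cell viability assay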
HCC1419 = format: functional, cell-based, Homo sapiens;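 further: growth inhibition of human HCC1419 cells, read out as cell viability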
Description: SANGER: Inhibition of human HCC1419 cell growth in a cell viability assay.

NCI-H1623 = format: functional, cell-based, Homo sapiens;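 further: cell viability assay used as the read-out for growth inhibition of NCI-H1623 cells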
Description: SANGER: Inhibition of human NCI-H1623 cell growth in a cell viability assay.

PFSK-1 = format: functional, cell-based, Homo sapiens;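 further: cell viability assay measuring how strongly compounds suppress growth of human PFSK-1 cells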
Description: SANGER: Inhibition of human PFSK-1 cell growth in a cell viability assay.

KYSE-510 = format: functional, cell-based, Homo sapiens;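 further: cell viability readout used to measure how strongly growth of the cell line is suppressed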
Description: SANGER: Inhibition of human KYSE-510 cell growth in a cell viability assay.

RT-112 = format: functional, cell-based, Homo sapiens
TGBC24TKB = format: functional, cell-based, Homo sapiens;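 further: growth inhibition of human TGBC24TKB cells, read out with a cell viability assay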
Description: SANGER: Inhibition of human TGBC24TKB cell growth in a cell viability assay.

Lu-65 = format: functional, cell-based; settings: Homo sapiens;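 further: growth inhibition of Lu-65 cancer cells, read out by a cell viability assay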
Description: SANGER: Inhibition of human LU-65 cell growth in a cell viability assay.

ATN-1 = format: functional, cell-based; settings: Homo sapiens;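 further: growth inhibition of human ATN-1 cells, read out with a cell viability assay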
Description: SANGER: Inhibition of human ATN-1 cell growth in a cell viability assay.

CN(C)C/C=C/C(=O)Nc1cc2c(Nc3ccc(F)c(Cl)c3)ncnc2cc1O[C@H]1CCOC1 [AFATINIB]
IC50 (LNCaP-Clone-FGC; Homo sapiens, LNCaP-Clone-FGC): > 500 nM | IC50 (SW982): > 500 nM | IC50 (D-392MG; Homo sapiens, D-392MG): > 500 nM | IC50 (CAL-51; Homo sapiens, CAL-51): > 500 nM | IC50 (Ca-Ski): > 500 nM | IC50 (SNU-387; Homo sapiens, SNU-387): > 500 nM | IC50 (NCI-H526): 78.2 nM | IC50 (Detroit 562; Homo sapiens, Detroit 562): > 500 nM | IC50 (MKN-1; Homo sapiens, MKN-1): > 500 nM | IC50 (M059J; Homo sapiens, M059J): > 500 nM | IC50 (K5; Homo sapiens, K5): > 500 nM | IC50 (NCI-H2030; Homo sapiens, NCI-H2030): > 500 nM | IC50 (A204; Homo sapiens, A204): > 500 nM | IC50 (SK-MEL-28): > 500 nM | IC50 (IA-LM; Homo sapiens, IA-LM): > 500 nM | IC50 (MFE-280; Homo sapiens, MFE-280): > 500 nM | IC50 (SW13; Homo sapiens, SW13): 162 nM | IC50 (FTC-133; Homo sapiens, FTC-133): > 500 nM | IC50 (GCT; Homo sapiens, GCT): > 500 nM | IC50 (MHH-ES-1; Homo sapiens, MHH-ES-1): > 500 nM | IC50 (KALS-1; Homo sapiens, KALS-1): > 500 nM | IC50 (KYSE-450): 59.8 nM | IC50 (TYK-nu; Homo sapiens, TYK-nu): > 500 nM | IC50 (A4-Fuk): > 500 nM | IC50 (LXF-289 cell line; Homo sapiens, LXF-289): > 500 nM | IC50 (SCC-25; Homo sapiens, SCC-25): > 500 nM | IC50 (KMOE-2): > 500 nM | IC50 (PANC-08-13; Homo sapiens, PANC-08-13): > 500 nM | IC50 (DoTc2-4510; Homo sapiens, DoTc2-4510): 322 nM | IC50 (KYSE-270; Homo sapiens, KYSE-270): > 500 nM | IC50 (ASPC1; Homo sapiens, ASPC1): > 500 nM | IC50 (CAL-12T; Homo sapiens, CAL-12T): > 500 nM | IC50 (TE-12): > 500 nM | IC50 (HC-1): > 500 nM | IC50 (HTC-C3; Homo sapiens, HTC-C3): > 500 nM | IC50 (ES4; Homo sapiens, ES4): > 500 nM | IC50 (HT): > 500 nM | IC50 (LB2241-RCC; Homo sapiens, LB2241-RCC): 109 nM | IC50 (LU-139): 305 nM | IC50 (SCH; Homo sapiens, SCH): > 500 nM | IC50 (DB): > 500 nM | IC50 (NCI-H2126; Homo sapiens, NCI-H2126): > 500 nM | IC50 (TGBC1TKB; Homo sapiens, TGBC1TKB): > 500 nM | IC50 (NCI-H747): > 500 nM | IC50 (HCC1419; Homo sapiens, HCC1419): 364 nM | IC50 (NCI-H1623; Homo sapiens, NCI-H1623): 80.2 nM | IC50 (PFSK-1; Homo sapiens, PFSK-1): > 500 nM | IC50 (KYSE-510; Homo sapiens, KYSE-510): > 500 nM | IC50 (RT-112; Homo sapiens, RT-112): > 500 nM | IC50 (TGBC24TKB; Homo sapiens, TGBC24TKB): > 500 nM | IC50 (Lu-65): 126 nM | IC50 (ATN-1): > 500 nM

Cc1cc([C@@H](C)Nc2ccccc2C(=O)O)c2nc(N3CCOCC3)cc(=O)n2c1 [AZD-6482]
IC50 (LNCaP-Clone-FGC; Homo sapiens, LNCaP-Clone-FGC): 1520 nM | IC50 (LNCaP-Clone-FGC; lncap-clone-fgc): 2410 nM | IC50 (D-392MG; d-392mg): > 5120 nM | IC50 (CAL-51; cal-51): > 5120 nM | IC50 (Ca-Ski): 1930 nM | IC50 (SNU-387; snu-387): > 5120 nM | IC50 (NCI-H526): > 5120 nM | IC50 (Detroit 562; detroit 562): 1050 nM and 2130 nM | IC50 (MKN-1; mkn-1): > 5120 nM | IC50 (M059J; Homo sapiens, M059J): > 5120 nM | IC50 (M059J; m059j): > 5120 nM | IC50 (K5; Homo sapiens, K5): > 5120 nM | IC50 (K5; k5): > 5120 nM | IC50 (NCI-H2030; Homo sapiens, NCI-H2030): 2900 nM | IC50 (NCI-H2030; nci-h2030): 2690 nM | IC50 (A204; Homo sapiens, A204): > 5120 nM | IC50 (A204; a204): 2770 nM | IC50 (SK-MEL-28): > 5120 nM | IC50 (IA-LM; ia-lm): > 5120 nM | IC50 (MFE-280; mfe-280): > 5120 nM | IC50 (SW13; Homo sapiens, SW13): > 5120 nM | IC50 (SW13; sw13): > 5120 nM | IC50 (FTC-133; ftc-133): > 5120 nM | IC50 (GCT; gct): > 5120 nM | IC50 (MHH-ES-1; mhh-es-1): > 5120 nM | IC50 (KALS-1; Homo sapiens, KALS-1): 4350 nM | IC50 (KALS-1; kals-1): > 5120 nM | IC50 (KYSE-450): > 5120 nM | IC50 (TYK-nu; tyk-nu): > 5120 nM | IC50 (A4-Fuk): 3080 nM | IC50 (LXF-289 cell line; lxf-289): 1550 nM and 4060 nM | IC50 (SCC-25; scc-25): > 5120 nM and 4740 nM | IC50 (KMOE-2): > 5120 nM | IC50 (PANC-08-13; panc-08-13): > 5120 nM | IC50 (DoTc2-4510; dotc2-4510): > 5120 nM | IC50 (KYSE-270; kyse-270): > 5120 nM | IC50 (ASPC1; aspc1): > 5120 nM | IC50 (CAL-12T; cal-12t): > 5120 nM | IC50 (TE-12): > 5120 nM | IC50 (HC-1): > 5120 nM | IC50 (HTC-C3; Homo sapiens, HTC-C3): > 5120 nM | IC50 (HTC-C3; htc-c3): > 5120 nM | IC50 (ES4; es4): > 5120 nM | IC50 (HT): 4020 nM | IC50 (LB2241-RCC; lb2241-rcc): > 5120 nM and 1320 nM | IC50 (LU-139): > 5120 nM | IC50 (SCH; sch): > 5120 nM | IC50 (DB): > 5120 nM | IC50 (NCI-H2126; nci-h2126): > 5120 nM | IC50 (TGBC1TKB; tgbc1tkb): > 5120 nM | IC50 (NCI-H747): > 5120 nM | IC50 (HCC1419; hcc1419): > 5120 nM | IC50 (NCI-H1623; nci-h1623): > 5120 nM and 3130 nM | IC50 (PFSK-1; pfsk-1): > 5120 nM | IC50 (KYSE-510; Homo sapiens, KYSE-510): > 5120 nM | IC50 (KYSE-510; kyse-510): > 5120 nM | IC50 (RT-112; Homo sapiens, RT-112): > 5120 nM | IC50 (RT-112; rt-112): > 5120 nM | IC50 (TGBC24TKB; tgbc24tkb): > 5120 nM | IC50 (Lu-65): > 5120 nM | IC50 (ATN-1): > 5120 nM
